From publication PMC3356383, “Efficacious Intermittent Dosing of a Novel JAK2 Inhibitor in Mouse Models of Polycythemia Vera” (PLoS ONE, 2012)
Marks after values point to notes of the source that are not given here.

Assays:
pSTAT5 = assay: Acute PK/PD: pSTAT5 in peripheral blood of darbepoetin-stimulated mice; format: in vivo, C57BL/6 mice; settings: Mus musculus
Method: C57BL/6 mice (Charles River Laboratories, Wilmington, MA) aged 4–6 weeks were dosed with MRLB-11055 in vehicle (10%v/v polysorbate 80) or with vehicle alone. All dosing was done by oral gavage (10 ml/kg body weight/day). Blood sampling and measurement of pSTAT5 in the blood of darbepoetin-stimulated mice were measured as described previously. The level of MRLB-11055 in the blood of animals was measured by diluting blood samples (10 uL) with citrate buffer (30 uL) and precipitating with acetonitrile (200 uL) containing a structural analog as internal standard. Precipitated samples were filtered, water (200 uL) was added and the sample injected onto a C18 column (Waters Atlantis T3, 2.1 mm x 30 mm). Electrospray ionization with multiple reaction monitoring was used for MS/MS detection.

JAK3 (JH1) = molecular target: T1, JAK3 (JH1) (Homo sapiens, UniProt P52333); assay: JAK3 enzyme assay, HTRF detection; format: biochemical
T1 construct: JAK3 (JH1)
Method: JAK1, JAK2, JAK3, and TYK2 kinase activity assays were performed as described previously using HTRF detection technology and the peptide substrate amino hexanoyl biotin-EQEDEPEGDYFEWLE-NH2. Each reaction was incubated between 60 and 80 min at room temperature. Final conditions were as follows: JAK1, 400 pM enzyme, Hepes pH 7.5, 10 mM MgCl2, 0.01% Brij-35, 1 mM EGTA, 0.1 mg/ml BSA), 2 mM DTT, 2 µM peptide substrate, 25 µM MgATP, 5% DMSO and the desired concentration of subject compound; JAK2, 25 pM enzyme (JH1, JH1–JH2^wt, JH1–JH2^V617F domains), 2 µM peptide substrate, 15 µM MgATP, 5 mM MgCl2, 100 mM NaCl, 2 mM DTT, 0.1 mg/ml BSA, 50 mM Tris (pH 7.4), 5% DMSO and the desired concentration of subject compound; JAK3, 250 pM enzyme, 50 mM Hepes pH 7.5, 10 mM MgCl2, 0.01% Brij-35, 1 mM EGTA, 0.1 mg/ml BSA), 2 mM DTT, 2.0 µM peptide substrate, 25 µM MgATP, 5% DMSO, and the desired concentration of subject compound; TYK2, 125 pM enzyme, 50 mM Hepes pH 7.5, 10 mM MgCl2, 0.01% Brij-35, 1 mM EGTA, 0.1 mg/ml BSA, 2 mM DTT, 2.0 µM peptide substrate, 15 µM MgATP, 5% DMSO and the desired concentration of subject compound.

thymus cell populations = assay: Cell populations in thymus of normal mice; format: in vivo; settings: 54 mpk
Method: (§1) Cells were stained in PBS, 0.5% BSA with antibodies for 15 min on ice. Stained cells were acquired on a 4-laser LSR-II (BD Biosciences) and data analyzed using FlowJo software (Treestar). Dead cells were labeled with the blue fluorescent LIVE/DEAD reactive dye (Invitrogen) and excluded from the analysis.
(§2) Monoclonal antibodies (anti-mouse): CD3, CD4, CD5, CD8, CD11b, CD19, CD21/35, CD23, CD25, CD43, CD44, CD49b, CD69, CD71, CD93, CD117, B220, GR-1, IgD, NK1.1, NKG2A/C/E, NKG2D, Ter119 were purchased from BD Biosciences; CD4, CD8, CD49b, CD62L, TCRβ, TCRγδ from eBioscience; GR-1 from Invitrogen; CD43 from Miltenyi Biotec. Goat anti-mouse IgM-FITC, (μ chain specific) from Jackson Immuno Research.
(§3) JAK2 and its family members JAK1 and JAK3 are known to signal downstream of cytokines that play essential roles in the development of lymphoid cell populations. To examine more thoroughly the effects of JAK2 inhibition on lymphoid cells, we analyzed wild-type (C57BL/6) mice treated with 54 mpk MRLB-11055 for 3 days, 6 days or up to 5 cycles of 3 days (“on”) followed by a 4 day holiday (“off”).
(§4) Supplementary file pone.0037207.s007.doc: Table S5 Effect of MRLB-11055 on Cell Populations in Thymus of Normal Mice. Cell counts measured by Advia. Cycles refer to 3 days of treatment followed by a 4 day holiday. *p<0.05 in Student T test when comparing vehicle 5 cycle with treatment 5 cycle and vehicle 2 cycle with treatment 2 cycle, resp. (DOC) Click here for additional data file.

[1] = tested on: bone marrow cell populations; assay: Cell populations in bone marrow of normal mice; format: in vivo; settings: 54 mpk
Method: as §1, §2, §3
as §4, with “pone.0037207.s006.doc:” for “pone.0037207.s007.doc:”, “S4” for “S5”, “Bone Marrow” for “Thymus”

[2] = 2 cycles (3 days treatment, 4 day holiday)
[3] = 5 cycles (3 days treatment, 4 day holiday)

T1 sequence (P52333 822-1111 limits assumed, species assumed): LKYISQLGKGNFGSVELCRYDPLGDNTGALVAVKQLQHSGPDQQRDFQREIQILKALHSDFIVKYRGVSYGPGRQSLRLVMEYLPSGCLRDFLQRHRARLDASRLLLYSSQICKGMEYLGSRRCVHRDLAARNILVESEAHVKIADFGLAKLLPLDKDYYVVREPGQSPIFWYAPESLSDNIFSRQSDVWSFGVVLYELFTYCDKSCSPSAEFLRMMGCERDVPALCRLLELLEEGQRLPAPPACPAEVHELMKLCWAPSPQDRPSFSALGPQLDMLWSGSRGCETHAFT

## NC(=O)c1cnc(N[C@H](C2CC2)C(F)(F)F)c2c1[nH]c1cc(-c3cnc(N)nc3)ccc12 [MRLB-11055]
pSTAT5; 36 mg/kg oral, maintained over 12 hours
  inhibition at 36 mg/kg: > 90%
pSTAT5; oral dosing, mice simultaneously injected with darbepoetin, read-out: IC50 for inhibition of pSTAT5 in peripheral blood in vivo
  IC50: 1200 nM
JAK3 (JH1); HTRF, mean, n = 3, read-out: IC50, cell-free JAK3 (JH1)
  IC50: 300 nM
JAK3 (JH1); cell-free assays
  Selectivity for JAK2 over JAK3: > 3000 fold
Thymus cell populations; [2]
  Thymus CD4+CD8+: 91.3 ± 0.3%
  Thymus CD4-CD8-: 3.0 ± 0.8%
  Thymus Cell Count: 75.4 ± 26.5 x 10^6
  Thymus Single Positive CD4+: 3.9 ± 0.8* %
  Thymus Single Positive CD8+: 0.55 ± 0.03* %
Thymus cell populations; [3]
  Thymus CD4+CD8+: 90.7 ± 1.5%
  Thymus CD4-CD8-: 2.1 ± 0.6%
  Thymus Cell Count: 130.3 ± 27.1 x 10^6
  Thymus Single Positive CD4+: 5.0 ± 1.1%
  Thymus Single Positive CD8+: 1.4 ± 0.2* %
Thymus cell populations; 3 days
  Thymus CD4+CD8+: 85.6 ± 2.4* %
  Thymus CD4-CD8-: 3.5 ± 0.6%
  Thymus Cell Count: 37.3 ± 13.4* x 10^6
  Thymus Single Positive CD4+: 7.1 ± 1.3%
  Thymus Single Positive CD8+: 2.7 ± 0.8%
Thymus cell populations; 6 days
  Thymus CD4+CD8+: 87.9 ± 5.0%
  Thymus CD4-CD8-: 2.4 ± 0.9%
  Thymus Cell Count: 37.3 ± 12.1* x 10^6
  Thymus Single Positive CD4+: 5.8 ± 2.7%
  Thymus Single Positive CD8+: 2.7 ± 1.1%
[1]; [2]
  B-Cells (CD19+B220+) Immature AA4.1+ IgM+: 0.70 ± 0.04* x 10^6
  B-Cells (CD19+B220+) Mature AA4.1- IgM+: 0.54 ± 0.12 x 10^6
  B-Cells (CD19+B220+) Pro/pre AA4.1+ IgM-: 2.78 ± 0.92 x 10^6
  B-Cells (CD19+B220+) Total: 4.05 ± 0.94* x 10^6
  Erythroid Progenitors: 8.3 ± 0.9 x 10^6
  Mature Erythrocytes: 13.5 ± 0.7 x 10^6
  Myeloid GR-1+ CD11b+: 8.33 ± 0.85* x 10^6
  Nucleated Cells: 25.0 ± 4.0 x 10^6
[1]; [3]
  B-Cells (CD19+B220+) Immature AA4.1+ IgM+: 0.15 ± 0.05* x 10^6
  B-Cells (CD19+B220+) Mature AA4.1- IgM+: 0.38 ± 0.17* x 10^6
  B-Cells (CD19+B220+) Pro/pre AA4.1+ IgM-: 1.22 ± 0.74 x 10^6
  B-Cells (CD19+B220+) Total: 1.76 ± 0.87* x 10^6
  Erythroid Progenitors: 5.9 ± 1.9 x 10^6
  Mature Erythrocytes: 10.3 ± 3.2 x 10^6
  Myeloid GR-1+ CD11b+: 7.83 ± 3.46 x 10^6
  Nucleated Cells: 19.6 ± 7.2 x 10^6
[1]; 3 days
  B-Cells (CD19+B220+) Immature AA4.1+ IgM+: 0.22 ± 0.09* x 10^6
  B-Cells (CD19+B220+) Mature AA4.1- IgM+: 0.32 ± 0.17* x 10^6
  B-Cells (CD19+B220+) Pro/pre AA4.1+ IgM-: 0.24 ± 0.10* x 10^6
  B-Cells (CD19+B220+) Total: 0.78 ± 0.35* x 10^6
  Erythroid Progenitors: 0.5 ± 0.3* x 10^6
  Mature Erythrocytes: 25.0 ± 5.5* x 10^6
  Myeloid GR-1+ CD11b+: 2.07 ± 0.55* x 10^6
  Nucleated Cells: 4.7 ± 1.6* x 10^6
[1]; 6 days
  B-Cells (CD19+B220+) Immature AA4.1+ IgM+: 0.11 ± 0.03* x 10^6
  B-Cells (CD19+B220+) Mature AA4.1- IgM+: 0.59 ± 0.52 x 10^6
  B-Cells (CD19+B220+) Pro/pre AA4.1+ IgM-: 0.08 ± 0.03* x 10^6
  B-Cells (CD19+B220+) Total: 0.79 ± 0.54* x 10^6
  Erythroid Progenitors: 1.4 ± 0.8* x 10^6
  Mature Erythrocytes: 18.7 ± 2.5* x 10^6
  Myeloid GR-1+ CD11b+: 1.90 ± 0.68* x 10^6
  Nucleated Cells: 5.4 ± 2.2* x 10^6
